Read-outs that look alike come from different tables or passages of the source.
Legend:
Type in all cases: cell-based
HER2+/2VE Ba/F3 line = assay: Ba/F3 proliferation assay, HER2+/2VE; details: Tables 7 and 8
Protocol: (§1) Proliferation Assays. For adherent cell lines, cells were plated onto opaque white 96 well plates (Greiner cat #655083) and allowed to adhere overnight. The following day media was changed to fresh media that contained either DMSO or the indicated concentration of drug plus NRG (50 ng/mL final concentration) as indicated. Plates were incubated at 37° C. for 72 h and proliferation was read out using Cell Titer Glo (Promega) according to the manufacturer's protocol. For Ba/F3 cell proliferation, cells, drug dilution, and any necessary growth factors (10 ng/mL IL-3 or 6.25 ng/mL NRG) were combined in a well of a 96 well plate. Plates were incubated at 37° C. for 48 h and proliferation was read out using Cell Titer Glo according to the manufacturer's protocol. For all normalized assays, proliferation was normalized to the DMSO control condition. All graphs were plotted in GraphPad Prism 6 and fit with a non-linear regression of the log(inhibitor) vs response with a variable slope where shown. All graphs are averages (+/−standard deviation) of biological triplicates each performed in technical triplicate unless otherwise noted. If only one biological replicate was performed standard deviations were derived from the technical replicates.

Axl+ Ba/F3 cells = biological target: T1, Axl+ Ba/F3 cells (Homo sapiens, UniProt P30530); assay: Ba/F3 proliferation assay, Axl+; details: Tables 7 and 8; read-out: Ba/F3 line IC50, Axl+
T1 sequence (P30530 1-894): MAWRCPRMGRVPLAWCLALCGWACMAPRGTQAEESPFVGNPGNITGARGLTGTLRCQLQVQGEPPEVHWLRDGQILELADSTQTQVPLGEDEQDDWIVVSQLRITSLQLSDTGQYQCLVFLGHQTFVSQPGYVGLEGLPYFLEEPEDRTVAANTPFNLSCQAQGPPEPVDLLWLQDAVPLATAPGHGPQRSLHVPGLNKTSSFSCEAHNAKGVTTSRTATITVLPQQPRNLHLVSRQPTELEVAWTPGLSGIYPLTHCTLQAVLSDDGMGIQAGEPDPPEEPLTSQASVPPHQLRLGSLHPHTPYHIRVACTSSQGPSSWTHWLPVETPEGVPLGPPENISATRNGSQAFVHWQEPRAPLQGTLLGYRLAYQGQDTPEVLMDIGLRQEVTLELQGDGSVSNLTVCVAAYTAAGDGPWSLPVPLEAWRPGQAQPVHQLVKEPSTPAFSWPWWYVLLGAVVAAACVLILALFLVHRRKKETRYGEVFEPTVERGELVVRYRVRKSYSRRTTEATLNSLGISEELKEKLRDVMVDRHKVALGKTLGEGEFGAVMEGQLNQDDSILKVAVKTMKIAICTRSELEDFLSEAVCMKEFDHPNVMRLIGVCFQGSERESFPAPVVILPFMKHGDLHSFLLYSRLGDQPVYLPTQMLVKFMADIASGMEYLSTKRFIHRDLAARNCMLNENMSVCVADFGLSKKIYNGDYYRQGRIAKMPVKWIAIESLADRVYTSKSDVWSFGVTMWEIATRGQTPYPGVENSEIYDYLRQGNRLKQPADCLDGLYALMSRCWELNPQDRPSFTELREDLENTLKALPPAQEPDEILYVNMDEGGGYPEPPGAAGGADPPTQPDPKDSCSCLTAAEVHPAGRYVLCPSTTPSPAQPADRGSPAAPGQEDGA
Protocol: (§2) To validate the screen and test the effectiveness of counter-screening with either the same 2YF/3wt Ba/F3 cell line or the parental Ba/F3's in the presence of IL-3 to remove cytotoxic primary hits, we first tested a panel of kinase inhibitors with established mechanisms of action.
For Axl+ cells, the transduced cells were spun down at 500×g for 5 min and resuspended in media supplemented with 10 ng/mL IL-3 and 3 μg/mL puromycin (Invitrogen). Cells were maintained in these conditions for 7 days, passaging as required. After 7 days the cells were spun down, washed with fresh media, and then suspended in IL-3 free media. The cells were maintained in these conditions for 2 weeks to select for an IL-3 independent population of Axl+ driven cells.
as §1

[1] = system: parental Ba/F3 cells + IL-3; assay: Ba/F3 proliferation assay, Parental + IL-3; details: Tables 7 and 8, read-out: Ba/F3 line IC50, Parental + IL-3
Protocol: as §2, §1

[2] = biological target: 2YF/3wt + NRG Ba/F3 cells (HER2YF/HER3wt) (Homo sapiens, UniProt P04626, Y1005F/Y1023F/Y1112F/Y1127F/Y1139F/Y1196F/Y1221F/Y1222F/Y1248F, cells depend on it); assay: Ba/F3 proliferation assay, 2YF/3wt + NRG; details: Tables 7 and 8; read-out: Ba/F3 line IC50, HER2YF/HER3 + NRG
2YF/3wt + NRG Ba/F3 cells (HER2YF/HER3wt), sequence (P04626 whole entry Y1005F/Y1023F/Y1112F/Y1127F/Y1139F/Y1196F/Y1221F/Y1222F/Y1248F): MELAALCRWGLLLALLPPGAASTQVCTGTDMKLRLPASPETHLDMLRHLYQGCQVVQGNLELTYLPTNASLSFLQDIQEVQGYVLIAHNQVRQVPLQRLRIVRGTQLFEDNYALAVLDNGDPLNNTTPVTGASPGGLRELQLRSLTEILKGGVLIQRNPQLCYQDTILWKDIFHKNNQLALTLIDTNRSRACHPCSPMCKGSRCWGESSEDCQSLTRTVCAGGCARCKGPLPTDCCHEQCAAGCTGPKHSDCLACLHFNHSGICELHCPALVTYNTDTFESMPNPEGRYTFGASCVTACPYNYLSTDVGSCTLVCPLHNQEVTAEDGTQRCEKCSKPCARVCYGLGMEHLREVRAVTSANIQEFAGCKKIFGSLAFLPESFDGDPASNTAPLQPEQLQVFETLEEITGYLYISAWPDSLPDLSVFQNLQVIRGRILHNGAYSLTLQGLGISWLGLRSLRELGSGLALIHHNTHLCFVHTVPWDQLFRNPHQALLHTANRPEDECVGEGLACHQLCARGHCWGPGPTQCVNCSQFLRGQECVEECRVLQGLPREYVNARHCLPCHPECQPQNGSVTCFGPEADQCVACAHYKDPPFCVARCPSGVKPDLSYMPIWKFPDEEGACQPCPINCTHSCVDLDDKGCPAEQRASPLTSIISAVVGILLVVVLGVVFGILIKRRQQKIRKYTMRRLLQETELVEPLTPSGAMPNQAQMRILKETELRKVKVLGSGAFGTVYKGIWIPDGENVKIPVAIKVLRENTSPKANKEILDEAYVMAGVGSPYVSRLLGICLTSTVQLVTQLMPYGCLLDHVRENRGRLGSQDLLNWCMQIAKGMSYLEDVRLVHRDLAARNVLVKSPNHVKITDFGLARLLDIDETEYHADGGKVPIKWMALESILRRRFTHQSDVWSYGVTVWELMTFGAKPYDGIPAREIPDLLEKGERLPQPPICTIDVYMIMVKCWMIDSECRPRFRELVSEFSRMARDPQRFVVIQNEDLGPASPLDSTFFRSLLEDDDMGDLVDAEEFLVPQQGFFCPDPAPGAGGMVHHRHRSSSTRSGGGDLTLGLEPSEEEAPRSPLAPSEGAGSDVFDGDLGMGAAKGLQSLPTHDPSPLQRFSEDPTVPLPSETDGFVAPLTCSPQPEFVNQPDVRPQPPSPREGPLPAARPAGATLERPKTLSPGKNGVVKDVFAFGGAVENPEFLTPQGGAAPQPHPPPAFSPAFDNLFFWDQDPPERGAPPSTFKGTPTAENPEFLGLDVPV
Description: Ba/F3 cells are normally dependent on IL-3 signaling for their proliferation and survival, but can be made dependent on introduced oncogenic signals. We sequentially selected transduced Ba/F3 cells for populations stably expressing HER3 and then HER2. To ensure that all of the proliferative signal could be attributed to HER2/HER3 heterodimers, rather than HER2 homodimers, the 9 C-terminal tyrosines in HER2 were mutated to phenylalanine (HER2YF). We then withdrew IL-3 and supplemented the media with NRG to select for NRG dependent HER2YF/HER3wt cells (2YF/3wt).
For the 2YF/3wt cells, the parental cells were first transduced with HER3 according to the protocol above and were then spun down at 500×g for 5 min and re-suspended in media supplemented with 10 ng/mL IL-3 and 3 μg/mL puromycin (Invitrogen). Cells were maintained in these conditions for seven days, passaging as required. After seven days the cells were spun down, washed with fresh media, and then used for a subsequent round of transduction according to the protocol above with HER2YF virus. […] The cells were maintained in these conditions for seven days, passaging as required. After seven days the cells were spun down, washed with fresh media, and then suspended in media supplemented with 10 ng/mL of NRG. Cells were maintained in these conditions for seven days to select for a NRG dependent population of 2YF/3wt Ba/F3 cells that were then maintained as described above. The same protocol was used for the 2YF-L755S/3wt, 2YF-YVMA/3wt, and 2YF-VC/3wt cell lines using the indicated constructs.
Proliferation Assays. […] The following day media was changed to fresh media that contained either DMSO or the indicated concentration of drug plus NRG (50 ng/mL final concentration) as indicated. […] For all normalized assays, proliferation was normalized to the DMSO control condition. All graphs were plotted in GraphPad Prism 6 and fit with a non-linear regression of the log(inhibitor) vs response with a variable slope where shown. All graphs are averages (+/−standard deviation) of biological triplicates each performed in technical triplicate unless otherwise noted. If only one biological replicate was performed standard deviations were derived from the technical replicates.

Structure (SMILES) | IC50 (HER2+/2VE Ba/F3 line; Mus musculus, BaF3) | GI50 (Axl+ Ba/F3 cells) | GI50 [2] | IC50 (HER2+/2VE Ba/F3 line) | IC50 ([1]; Mus musculus, BaF3) | IC50 [1]
CC(=O)c1cccc(-c2n[nH]c3ncnc(Nc4ccc(Oc5ccccc5)cc4)c23)c1 [Cmpd 5-001B] | > 10000 nM | > 10000 nM | > 10000 nM | – | > 10000 nM | –
COc1ccc(N2CCN(C)CC2)cc1Nc1ncnc2[nH]nc(-c3ccsc3)c12 [Cmpd 41B] | > 1000 nM | > 1000 nM | > 3330 nM | – | > 3330 nM | –
COc1ccc(-c2ccccc2)cc1Nc1ncnc2[nH]nc(-c3ccco3)c12 [Cmpd 45A] | 978 nM | 1210 nM | 43 nM | – | > 10000 nM | –
COc1ccc(-c2ccccc2)cc1Nc1nc(N)nc2[nH]nc(-c3ccco3)c12 [Cmpd 65] | 11 nM | – | 4 nM | – | 8.4 nM | –
COc1ccc(-c2csc(C)c2)cc1Nc1ncnc2[nH]cc(-c3cn[nH]c3)c12 [Cmpd 172] | 422 nM | – | 910 nM | – | – | –
COc1ccc(-c2ccoc2)cc1Nc1ncnc2[nH]nc(-c3ccccc3)c12 [Cmpd 144A] | 1080 nM | – | 171 nM | – | > 3330 nM | –
COc1ccc(-c2ccoc2)cc1Nc1ncnc2[nH]nc(-c3cnn(C)c3)c12 [Cmpd 144B] | 308 nM | – | 21.4 nM | – | > 3330 nM | –
COc1ccc(-c2ccccc2)cc1Nc1ncnc2[nH]nc(-c3ccccc3)c12 [Cmpd 184] | 1290 nM | 527 nM | 386 nM | – | 9950 nM | –
COc1ccc(-c2sccc2C)cc1Nc1ncnc2[nH]nc(-c3ccco3)c12 [Cmpd 66B] | 210 nM | – | 31 nM | – | – | –
COc1ccc(-c2ccco2)cc1Nc1ncnc2[nH]nc(-c3cn[nH]c3)c12 [Cmpd 53B] | 83.5 nM | > 10000 nM | 13.9 nM | – | > 10000 nM | –
COc1ccc(C(=O)N(C)C)cc1Nc1ncnc2[nH]nc(-c3ccsc3)c12 [Cmpd 42] | > 10000 nM | > 10000 nM | > 10000 nM | – | > 10000 nM | –
COc1ccc(-c2cccnc2)cc1Nc1ncnc2[nH]nc(-c3ccsc3)c12 [Cmpd 39D] | > 10000 nM | > 10000 nM | > 10000 nM | – | > 10000 nM | –
COc1ccc(-c2ccccc2C)cc1Nc1ncnc2[nH]nc(-c3ccsc3)c12 [Cmpd 39A] | > 10000 nM | > 10000 nM | > 3330 nM | – | > 10000 nM | –
COc1ccc(-c2ccc(C#N)s2)cc1Nc1ncnc2[nH]cc(-c3cn[nH]c3)c12 [Cmpd 170] | 673 nM | – | 687 nM | – | – | –
CCOc1ccc(-c2ccccc2)cc1Nc1ncnc2[nH]cc(-c3cc[nH]n3)c12 [Cmpd 176] | – | – | 29 nM | 217 nM | – | 2290 nM
CCOc1ccc(-c2ccccc2)cc1Nc1ncnc2[nH]nc(-c3cn[nH]c3)c12 [Cmpd 147] | 359 nM | – | 58.7 nM | – | 1360 nM | –
CCOc1ccc(-c2ccccc2)cc1Nc1ncnc2[nH]cc(-c3cn[nH]c3)c12 [Cmpd 171] | 183 nM | – | 45 nM | – | – | –
CCOc1ccc(-c2ccoc2)cc1Nc1ncnc2[nH]nc(-c3cn[nH]c3)c12 [Cmpd 153] | 285 nM | – | 17.5 nM | – | > 3330 nM | –
COc1ccc(-c2ccnn2C)cc1Nc1ncnc2[nH]nc(-c3ccco3)c12 [Cmpd 66C] | 642 nM | – | 362 nM | – | – | –
COc1ccc(-c2ccoc2)cc1Nc1ncnc2[nH]nc(-c3ccnn3C)c12 [Cmpd 152] | 2570 nM | – | 822 nM | – | > 10000 nM | –
COc1ccc(-c2csc(C)n2)cc1Nc1ncnc2[nH]nc(-c3ccco3)c12 [Cmpd 66A] | 2340 nM | – | 1560 nM | – | – | –

The next lines start with results.

IC50 (HER2+/2VE Ba/F3 line; Mus musculus, BaF3) | GI50 (Axl+ Ba/F3 cells) | GI50 [2] | IC50 (HER2+/2VE Ba/F3 line) | Structure (SMILES) | IC50 ([1]; Mus musculus, BaF3) | IC50 [1]
> 1000 nM | > 1000 nM | > 1000 nM | – | COc1ccc(-c2ccccc2)cc1Nc1ncnc2[nH]nc(-c3cccc4ccccc34)c12 [Cmpd 191B] | > 1000 nM | –
> 10000 nM | > 10000 nM | > 10000 nM | – | COc1ccccc1Nc1ncnc2[nH]nc(-c3cccc(C(C)=O)c3)c12 [Cmpd 187B] | > 10000 nM | –
> 10000 nM | – | > 10000 nM | – | COc1ccc(-c2cnn(C)c2)cc1Nc1ncnc2[nH]nc(-c3cn[nH]c3)c12 [Cmpd 154C] | > 10000 nM | –
> 10000 nM | > 10000 nM | > 10000 nM | – | c1ccc(-c2ccc(Nc3ncnc4[nH]nc(-c5ccccc5)c34)cc2)cc1 [Cmpd 188A] | > 10000 nM | –
> 10000 nM | > 10000 nM | > 10000 nM | – | CC(=O)c1cccc(-c2n[nH]c3ncnc(Nc4ccc(-c5ccccc5)cc4)c23)c1 [Cmpd 188B] | > 10000 nM | –
> 10000 nM | > 10000 nM | > 10000 nM | – | COc1ccccc1Nc1ncnc2[nH]nc(-c3ccccc3)c12 [Cmpd 187A] | > 10000 nM | –
> 10000 nM | – | > 10000 nM | – | COc1ccc(-c2ccnn2C)cc1Nc1ncnc2[nH]nc(-c3cn[nH]c3)c12 [Cmpd 154A] | > 10000 nM | –
> 10000 nM | > 10000 nM | > 10000 nM | – | COc1ccc(-c2ccccc2)cc1Nc1ncnc2[nH]nc(-c3ccc(C(F)(F)F)cc3)c12 [Cmpd 191E] | > 10000 nM | –
613 nM | 362 nM | 361 nM | – | COc1ccc(-c2ccccc2)cc1Nc1ncnc2[nH]nc(-c3ccccc3F)c12 [Cmpd 189A] | 1120 nM | –
228 nM | – | 32 nM | – | COc1ccc(-c2ccoc2)cc1Nc1ncnc2[nH]cc(-c3ccc4nc[nH]c4c3)c12 [Cmpd 173B] | – | –
295 nM | – | 39.3 nM | – | COc1ccc(-c2sccc2C)cc1Nc1ncnc2[nH]nc(-c3cn[nH]c3)c12 [Cmpd 154B] | > 10000 nM | –

Reference: patent US20190119284A1, “ErbB Inhibitors and Uses Thereof” (The Regents of the University of California, priority 2016, published 2019)
